Values of other authors as cited in US20050203014A1, “Composition and methods for modulating CNS activity” (Curis, Inc., priority 2003, published 2005).

Legend:
[1] = tested on: knock-out mice lacking 5-HT1A receptors; settings: 5-HT1A receptor knock-out mice
[2] = tested on: dentate gyrus of the rat hippocampus

Q: With `CNCCC(Oc1ccc(C(F)(F)F)cc1)c1ccccc1` (centres unmarked) [fluoxetine] as the compound, how does the response to antidepressant [1] read?
A: non-responsive

Q: And the “neurogenesis in the dentate gyrus” value [2]?
A: increase neurogenesis

Q: Which results are given for `CN(C)CCCN1c2ccccc2CCc2ccccc21` [imipramine]?
A: response to antidepressant [1]: respond; neurogenesis in the dentate gyrus [2]: increase neurogenesis

Q: Which response to antidepressant [1] does the source give for `CNCCCN1c2ccccc2CCc2ccccc21` [desipramine] here?
A: respond
